Assay results from US7205295B2, “Benzoxazin-3-ones and derivatives thereof as therapeutic agents” (Warner-Lambert Company LLC, priority 2002, dated 2007).

Each compound was assayed against T1, PI3Kγ (p101/p110γ protein) (Homo sapiens, UniProt P48736) (assay: PI3Kγ In Vitro Kinase Assay). Settings: purified recombinant p101/p110γ with G protein β1/γ2 subunits; 20 μM ATP, 25 μM PIP2; 20 minutes at room temperature.
T1 construct: HA; made in house; host or cells: Spodoptera frugiperda (Sf9) cells, baculovirus co-infection
T1 sequence (P48736 whole entry, species assumed): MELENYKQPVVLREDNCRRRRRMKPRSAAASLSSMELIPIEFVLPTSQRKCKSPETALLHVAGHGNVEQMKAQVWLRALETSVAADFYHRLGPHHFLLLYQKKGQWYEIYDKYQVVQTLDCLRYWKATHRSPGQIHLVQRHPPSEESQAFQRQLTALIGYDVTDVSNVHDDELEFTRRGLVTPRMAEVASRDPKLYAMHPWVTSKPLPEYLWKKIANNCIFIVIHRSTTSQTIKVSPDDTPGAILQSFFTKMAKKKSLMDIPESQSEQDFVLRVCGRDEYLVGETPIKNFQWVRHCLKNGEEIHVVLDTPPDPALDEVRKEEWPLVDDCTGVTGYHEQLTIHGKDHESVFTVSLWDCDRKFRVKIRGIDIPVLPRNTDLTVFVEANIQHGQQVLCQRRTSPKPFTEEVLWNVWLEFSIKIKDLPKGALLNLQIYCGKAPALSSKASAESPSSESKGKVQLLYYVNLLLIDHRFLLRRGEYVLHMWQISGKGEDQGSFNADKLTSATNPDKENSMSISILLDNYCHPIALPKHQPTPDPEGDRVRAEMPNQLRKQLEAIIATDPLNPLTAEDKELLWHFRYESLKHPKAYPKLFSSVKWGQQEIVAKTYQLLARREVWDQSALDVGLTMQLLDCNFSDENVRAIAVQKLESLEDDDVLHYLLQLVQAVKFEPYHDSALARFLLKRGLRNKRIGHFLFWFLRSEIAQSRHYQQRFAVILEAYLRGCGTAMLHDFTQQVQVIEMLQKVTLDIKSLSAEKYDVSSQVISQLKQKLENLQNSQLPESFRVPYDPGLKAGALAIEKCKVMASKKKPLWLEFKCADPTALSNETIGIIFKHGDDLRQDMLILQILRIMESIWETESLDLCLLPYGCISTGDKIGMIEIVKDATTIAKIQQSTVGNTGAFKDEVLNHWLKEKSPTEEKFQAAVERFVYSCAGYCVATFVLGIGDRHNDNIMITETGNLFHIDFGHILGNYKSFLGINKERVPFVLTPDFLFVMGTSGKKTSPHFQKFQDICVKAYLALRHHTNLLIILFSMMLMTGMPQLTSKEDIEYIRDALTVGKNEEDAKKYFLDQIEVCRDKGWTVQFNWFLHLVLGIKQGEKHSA
T1 sequence (Q8WYR1 whole entry partner, species assumed): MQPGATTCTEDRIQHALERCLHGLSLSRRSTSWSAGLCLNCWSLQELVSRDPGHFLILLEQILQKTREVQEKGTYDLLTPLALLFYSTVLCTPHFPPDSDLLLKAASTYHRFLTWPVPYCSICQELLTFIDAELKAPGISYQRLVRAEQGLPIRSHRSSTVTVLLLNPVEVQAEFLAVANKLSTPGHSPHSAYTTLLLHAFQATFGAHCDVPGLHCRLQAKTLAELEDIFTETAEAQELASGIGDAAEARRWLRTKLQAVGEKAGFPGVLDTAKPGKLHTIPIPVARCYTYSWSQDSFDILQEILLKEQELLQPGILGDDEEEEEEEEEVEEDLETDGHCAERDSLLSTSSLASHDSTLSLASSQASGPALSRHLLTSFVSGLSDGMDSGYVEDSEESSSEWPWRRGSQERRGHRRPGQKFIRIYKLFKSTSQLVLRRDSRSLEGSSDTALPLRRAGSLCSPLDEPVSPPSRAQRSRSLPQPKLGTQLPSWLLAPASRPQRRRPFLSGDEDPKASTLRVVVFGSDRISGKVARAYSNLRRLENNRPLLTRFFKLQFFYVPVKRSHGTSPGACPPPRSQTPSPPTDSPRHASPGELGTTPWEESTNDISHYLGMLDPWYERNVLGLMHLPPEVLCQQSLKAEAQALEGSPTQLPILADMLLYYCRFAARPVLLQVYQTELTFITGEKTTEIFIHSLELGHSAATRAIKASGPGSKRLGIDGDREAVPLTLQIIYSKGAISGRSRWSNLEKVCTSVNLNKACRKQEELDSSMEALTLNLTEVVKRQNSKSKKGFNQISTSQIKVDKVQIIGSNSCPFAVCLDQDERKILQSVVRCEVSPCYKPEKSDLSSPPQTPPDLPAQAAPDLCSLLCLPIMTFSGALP
Type: biochemical
Description: Spodtera frugiperda cells, grown in ESF921 media, were coinfected with baculovirus expressing a glu-tagged p101 and baculovirus expressing an HA-tagged p110γ, at a 3:1 ratio of p101 baculovirus to p110γ baculovirus. Sf9 cells were grown to 1×10^7 total cells/mL in 10L bioreactors and harvested 48-72 hours post infection. Samples of infected cells were then tested for expression of p101/p110γ PI3 kinase by immunoprecipitation and Western Blot analysis methods (see below). […] NaCl was added to 150 mM, and sodium cholate was added to 1% and mixed for another 45 minutes. The lysates were clarified by centrifugation for 25 minutes at 14,000 rpm. The lysates were then loaded over anti-glu-linked Protein-G Sepaharose beads (Covance Research Products, Richmond, Calif.) using 20 mL resin/50 g cell paste. […] PI3Kγ was eluted with 6 column volumes of wash buffer that contain 100 μg/mL of a peptide that competes for binding of the glu tag. […] The fractions were stored at -80° C. until further use. Spodtera frugiperda cells were coinfected with baculovirus expressing a glu-tagged G protein β1 and baculovirus expressing a G protein […] at a 1:1 ratio of glu-tagged G protein β1 baculovirus to G protein β2 baculovirus. Sf9 cells are grown in 10 L bioreactors and harvested 48-72 hours post infection. Samples of infected cells were tested for G protein β1/β2 expression by Western Blot analysis, as described below. Cell lysates were homogenized and loaded onto a column of glu-tagged beads as in Biological Example 1 and competed off the column with a glu peptide as described in Biological Example 1. The inhibitory properties of the compounds in Table 1 were assayed in an in vitro PI3K assay. In a 96-well polypropylene plate, each well was spotted with 2 μL of […] the desired final concentration of compound in DMSO. Purified recombinant p101/p110γ protein (0.03 μg; 2.7 nM) and G protein β1/γ2 subunits (0.09 μg; 57.7 nM) for each reaction was combined in the assay buffer (30 mM HEPES, 100 mM NaCl, 1 mM EGTA, and 1 mM DTT). ATP and [γ-^32P-ATP] (0.09 μCi) were added to this mixture so that the final ATP concentration in the reaction was 20 μM. Lipid micelles were formed by sonicating phosphatidylinositol-4,5-diphosphate (PIP2), phosphatidylethanolamine (PE), and Na-cholate in the assay buffer for 10 minutes, adding MgCL2 and incubating on ice for 20 minutes, for final concentrations of 25 μM PIP2, 300 [M PE, 0.02% Na-cholate, and 10 mM MgCl2 in the reaction. The reactions were started by adding equal volumes lipid and enzyme mixture in a total volume of 50 μL, allowed to run for 20 minutes at room temperature, and stopped with 100 μL 75 mM H3PO4. The lipid product was transferred to a glass fiber filter plate and washed with 75 mM H3PO4 several times. The presence of radioactive lipid product (PIP3) was measured by adding Wallac Optiphase mix to each well and counting in a Wallac 1450 Trilux plate reader (PerkinElmer Life Sciences Inc., Boston, Mass. 02118).

IC50 [nM] | SMILES
16 | CC(C)(C)c1cc(I)cc(CN2C(=O)COc3ccc(C=C4SC(=S)NC4=O)cc32)c1 [Example 52, 4-(3-tert-Butyl-5-iodo-benzyl)-6-(4-oxo-2-thioxo-thiazolidin-5-ylidenemethyl)-4H-1,4-benzoxazin-3-one]
43 | O=C1COc2c(F)cc(C=C3SC(=S)NC3=O)cc2N1 [Example 53, 8-Fluoro-6-(4-oxo-2-thioxo-thiazolidin-5-ylidenemethyl)-4H-1,4-benzoxazin-3-one]
40 | CC(C)(C)c1cc(CN2C(=O)COc3c(F)cc(C=C4SC(=S)NC4=O)cc32)cc(C(C)(C)C)c1 [Example 54, 4-(3,5-Di-tert-butyl-benzyl)-8-fluoro-6-(4-oxo-2-thioxo-thiazolidin-5-ylidenemethyl)-4H-1,4-benzoxazin-3-one]
9 | CC(C)(C)c1cc(C#N)cc(CN2C(=O)COc3ccc(C=C4SC(=S)NC4=O)cc32)c1 [Example 55, 3-tert-Butyl-5-[3-oxo-6-(4-oxo-2-thioxo-thiazolidin-5-ylidenemethyl)-2,3-dihydro-1,4-benzoxazin-4-ylmethyl]-benzonitrile]
18 | C=Cc1cc(CN2C(=O)COc3ccc(C=C4SC(=S)NC4=O)cc32)cc(C(C)(C)C)c1 [Example 56, 4-(3-tert-Butyl-5-vinyl-benzyl)-6-(4-oxo-2-thioxo-thiazolidin-5-ylidenemethyl)-4H-1,4-benzoxazin-3-one]
29 | COC(=O)c1cc(CN2C(=O)COc3ccc(C=C4SC(=S)NC4=O)cc32)cc(C(C)(C)C)c1 [Example 57, 3-tert-Butyl-5-[3-oxo-6-(4-oxo-2-thioxo-thiazolidin-5-ylidenemethyl)-2,3-dihydro-1,4-benzoxazin-4-ylmethyl]-benzoic acid methyl ester]
32 | CC(C)(C)c1cc(CN2C(=O)COc3ccc(C=C4SC(=S)NC4=O)cc32)cc(C(=O)O)c1 [Example 58, 3-tert-Butyl-5-[3-oxo-6-(4-oxo-2-thioxo-thiazolidin-5-ylidenemethyl)-2,3-dihydro-1,4-benzoxazin-4-ylmethyl]-benzoic acid]
70 | CC(C)(C)OC(=O)CNC(=O)c1cc(CN2C(=O)COc3ccc(C=C4SC(=S)NC4=O)cc32)cc(C(C)(C)C)c1 [Example 59, {3-tert-Butyl-5-[3-oxo-6-(4-oxo-2-thioxo-thiazolidin-5-ylidenemethyl)-2,3-dihydro-1,4-benzoxazin-4-ylmethyl]-benzoylamino}-acetic acid tert-butyl ester]
26 | CC(C)(C)c1cc(CN2C(=O)COc3ccc(C=C4SC(=S)NC4=O)cc32)cc(C(=O)NCC(=O)O)c1 [Example 60, {3-tert-Butyl-5-[3-oxo-6-(4-oxo-2-thioxo-thiazolidin-5-ylidenemethyl)-2,3-dihydro-1,4-benzoxazin-4-ylmethyl]-benzoylamino}-acetic acid]
70 | Cc1cc(C=C2SC(=S)NC2=O)cc2c1OCC(=O)N2Cc1cc(C(C)(C)C)cc(C(C)(C)C)c1 [Example 61, 4-(3,5-Di-tert-butyl-benzyl)-8-methyl-6-(4-oxo-2-thioxo-thiazolidin-5-ylidenemethyl)-4H-1,4-benzoxazin-3-one]
850 | CC(c1cc(C(C)(C)C)cc(C(C)(C)C)c1)N1C(=O)COc2ccc(C=C3SC(=S)NC3=O)cc21 (stereo not shown) [Example 62, 4-[1-(3,5-Di-tert-butyl-phenyl)-ethyl]-6-(4-oxo-2-thioxo-thiazolidin-5-ylidenemethyl)-4H-1,4-benzoxazin-3-one]
49 | CCc1cc(CN2C(=O)COc3ccc(C=C4SC(=S)NC4=O)cc32)cc(C(C)(C)C)c1 [Example 63, 4-(3-tert-Butyl-5-ethyl-benzyl)-6-(4-oxo-2-thioxo-thiazolidin-5-ylidenemethyl)-4H-1,4-benzoxazin-3-one]
16 | CC(=O)c1cc(CN2C(=O)COc3ccc(C=C4SC(=S)NC4=O)cc32)cc(C(C)(C)C)c1 [Example 64, 4-(3-Acetyl-5-tert-butyl-benzyl)-6-(4-oxo-2-thioxo-thiazolidin-5-ylidenemethyl)-4H-1,4-benzoxazin-3-one]
95 | CC(C)(C)c1cc(CN2C(=O)COc3ccc(C=C4SC(=S)NC4=O)cc32)cc(-c2ccccc2)c1 [Example 65, 4-(5-tert-Butyl-biphenyl-3-ylmethyl)-6-(4-oxo-2-thioxo-thiazolidin-5-ylidenemethyl)-4H-1,4-benzoxazin-3-one]
257 | CC(C)(C)c1cc(CN2C(=O)COc3ccc(C=C4SC(=O)NC4=O)cc32)cc(C(C)(C)C)n1 [Example 66, 5-[4-(2,6-Di-tert-butyl-pyridin-4-ylmethyl)-3-oxo-3,4-dihydro-2H-1,4-benzoxazin-6-ylmethylene]-thiazolidine-2,4-dione]
60 | Cc1cc(C)cc(CN2C(=O)COc3c(Cl)cc(C=C4SC(=S)NC4=O)cc32)c1 [Example 67, 8-Chloro-4-(3,5-dimethyl-benzyl)-6-(4-oxo-2-thioxo-thiazolidin-5-ylidenemethyl)-4H-1,4-benzoxazin-3-one]
555 | Cc1cc(C)cc(CN2C(=O)COc3c(Cl)cc(C=C4SC(=O)NC4=O)cc32)c1 [Example 68, 5-[8-Chloro-4-(3,5-dimethyl-benzyl)-3-oxo-3,4-dihydro-2H-1,4-benzoxazin-6-ylmethylene]-thiazolidine-2,4-dione]
8 | Cc1cc(C)cc(CN2C(=O)COc3c(F)cc(C=C4SC(=S)NC4=O)cc32)c1 [Example 69, 4-(3,5-Dimethyl-benzyl)-8-fluoro-6-(4-oxo-2-thioxo-thiazolidin-5-ylidenemethyl)-4H-1,4-benzoxazin-3-one]
12 | CC(=O)OCc1cc(CN2C(=O)COc3ccc(C=C4SC(=S)NC4=O)cc32)cc(C(C)(C)C)c1 [Example 70, Acetic acid 3-tert-butyl-5-[3-oxo-6-(4-oxo-2-thioxo-thiazolidin-5-ylidenemethyl)-2,3-dihydro-1,4-benzoxazin-4-ylmethyl]-benzyl ester]
6 | O=C1NC(=S)SC1=Cc1cc(F)c2c(c1)N(Cc1ccc(CN3CCOCC3)cc1)C(=O)CO2 [Example 71, 8-Fluoro-4-(4-morpholin-4-ylmethyl-benzyl)-6-(4-oxo-2-thioxo-thiazolidin-5-ylidenemethyl)-4H-1,4-benzoxazin-3-one]
14 | CCN(CC)Cc1ccc(CN2C(=O)COc3c(F)cc(C=C4SC(=S)NC4=O)cc32)cc1 [Example 72, 4-(4-Diethylaminomethyl-benzyl)-8-fluoro-6-(4-oxo-2-thioxo-thiazolidin-5-ylidenemethyl)-4H-1,4-benzoxazin-3-one]
7 | O=C1NC(=S)SC1=Cc1cc(F)c2c(c1)N(Cc1ccc(CN3CCCCC3)cc1)C(=O)CO2 [Example 73, 8-Fluoro-6-(4-oxo-2-thioxo-thiazolidin-5-ylidenemethyl)-4-(4-piperidin-1-ylmethyl-benzyl)-4H-1,4-benzoxazin-3-one]
19 | CC(C)(C)OC(=O)N1CCN(Cc2ccc(CN3C(=O)COc4ccc(C=C5SC(=S)NC5=O)cc43)cc2)CC1 [Example 74, 4-{4-[3-Oxo-6-(4-oxo-2-thioxo-thiazolidin-5-ylidenemethyl)-2,3-dihydro-1,4-benzoxazin-4-ylmethyl]-benzyl}-piperazine-1-carboxylic acid tert-butyl ester]
155 | CC(C)(C)OC(=O)N1CCN(Cc2ccc(CN3C(=O)COc4ccc(C=C5SC(=O)NC5=O)cc43)cc2)CC1 [Example 75, 4-{4-[6-(2,4-dioxo-thiazolidin-5-ylidenemethyl)-3-oxo-2,3-dihydro-1,4-benzoxazin-4-ylmethyl]-benzyl}-piperazine-1-carboxylic acid tert-butyl ester]
6 | O=C1NC(=O)C(=Cc2cc(F)c3c(c2)N(Cc2ccc(CN4CCCCC4)cc2)C(=O)CO3)S1 [Example 76, 5-[8-Fluoro-3-oxo-4-(4-piperidin-1-ylmethyl-benzyl)-3,4-dihydro-2H-1,4-benzoxazin-6-ylmethylene]-thiazolidine-2,4-dione]
